Test results from patent US8598159B2, “Therapeutic pyrazoloquinoline derivatives” (Dart Neuroscience (Cayman) Ltd., priority 2007, dated 2013).

Key:
[1] = system: GABAA receptors; experiment: Electrophysiology assay (two-electrode voltage clamp, Xenopus oocytes expressing GABAA receptors); type: cell-based; conditions: positive (Pos) or negative (Neg) modulation of current at GABA EC20, screening concentration of 10 μM
Description: The modulation of GABAA function is determined by changes in current as determined in an electrophysiology assay, as is detailed below.
mRNA was prepared from lyophilized plasmid pellets containing cDNA inserts encoding the specific GABAA receptor subunit. cDNAs encoding the α2, α3, and γ3 subunits were subcloned into pBluescript, SK^−. cDNAs encoding the a 1 and a 5 subunits were subcloned into prC while cDNA encoding the β2 subunit was subcloned into pcDNA1. The cDNA construct encoding the g 2s subunit is in the pGH19 expression construct. Overnight cultures of transformed DH5a bacterial cells were performed to grow sufficient quantities for maxiprep isolation of the plasmid cDNA. The resulting plasmid cDNA was linearized by digestion with an appropriate restriction enzyme that cleaves distal to the cDNA insert [XbaI (α1, β2), NotI (α3, γ2 s), SacII (α2), or ApaI (α5)]. Following digestion, plasmid cDNA was treated with proteinase K and extracted with phenol/chloroform/isoamyl alcohol, followed by ethanol precipitation. cDNA quality was assessed by agarose-gel electrophoresis (1.5% agarose gel). Samples were stored at −20° C. until use. In vitro transcription was performed with T7 RNA polymerase. mRNA was then stored at −80° C. until use. Plasmids were linearized with appropriate restriction enzymes before in vitro transcription using the Message Machine kit (Ambion, Austin, Tex.).
GABAA receptor expression in Xenopus oocytes: Following 45 min of 0.15% Tricaine anesthesia, an ovarian section containing the follicular oocytes was removed from the frog through a lateral abdominal incision. Oocytes were immediately placed in a calcium-free solution (NaCl 96 mM, MgCl2 1 mM, KCl 2 mM, Hepes 50 mM, pyruvate 2.5 mM, gentamycin 100 μg/mL, penicillin-streptomycin 50 U/mL, pH 7.4). Following 1.5-2 hour incubation in 0.2% collagenase (type II, Sigma Chemical Co., St. Louis, Mo.) at room temperature, individual Dumont stage V and VI oocytes were transferred to an incubator and maintained overnight in Barth's solution (NaCl 84 mM, NaHCO3 2.4 mM, MgSO4 0.82 mM, KCl 1 mM, Ca(NO3)2 0.33 mM, CaCl2 0.41 mM, Tris/HCl 7.5 mM, pyruvate 2.5 mM, gentamycin 50 μg/mL, penicillin-streptomycin, 100 units/mL, pH 7.4) at 18-20° C. and used for experiments 1-5 days post-injection. Oocytes were injected solution using an electronic microinjector (Drummond, Broomall, Pa.) with 50 nL of RNA containing 0.3-0.5 ng of each subunit RNA in a 1:1:2 ratio. The injected oocytes were used for experiments after 1-5 days of incubation in Barth's solution at 18-20° C.
Measurements of ion currents from oocytes expressing GABAA receptors were performed using a Warner two-electrode voltage-clamp amplifier (Warner Instruments, Inc., Foster City, Calif.) (Park-Chung, M. A., et al. (1999) Brain Res. 830: 72-87 incorporated herein in its entirety). Microelectrodes were fabricated from borosilicate glass capillaries with a programmed pipette puller (Sutter Instrument Co., CA). Microelectrode resistance was 1-3 MΩ when filled with 3 M KCl. The oocyte recording chamber was continuously perfused with ND-96 solution. Oocytes were clamped at a holding potential of −70 mV during data acquisition. The membrane current was filtered at 10 Hz and sampled at 100 Hz. Compounds were applied by a gravity-driven external perfusion system. The working volume of the recording chamber was […] and the rate of the perfusion was approximately […]. Compound application was 20-25 sec followed by a minimum of 150 sec wash. Data acquisition and external perfusion was computer controlled by custom-developed software. All experiments were performed at room temperature (22-24° C.). Dose-response data from each oocyte were fitted to the Hill equation by non-linear regression using the equation: IGABA=Emax/(1+(EC50/c)nH)
Emax is the maximum response, EC50 is the concentration producing 50% of the maximal response, nH is the Hill coefficient and c is the concentration of agonist. […]

[2] = molecular target: GABAA central benzodiazepine receptor; experiment: Benzodiazepine binding assay ((3H)-flunitrazepam displacement); conditions: read-out: BZ binding assay (IC50); rat whole brain (except cerebellum), 1 nM (3H)-flunitrazepam, 60 minutes at 25° C.; 3-concentration dose response curve

Row | SMILES | EP Result [1] | IC50 [2]
1 | CN1CCN(c2ccc3[nH]cc4c(=O)n(-c5ccc(Cl)cc5)nc-4c3c2)CC1 [7d, 2-(4′-Chlorophenyl)-8-(4-methylpiperazin-1-yl)-2,5-dihydro-pyrazolo[4,3-c]quinolin-3-one] | Pos | < 1000 nM
2 | COc1ccc(-n2nc3c4cc(N5CCNCC5)ccc4[nH]cc-3c2=O)cc1 [7e, 2-(4′-Methoxyphenyl)-8-piperazin-1-yl-2,5-dihydro-pyrazolo[4,3-c]quinolin-3-one] | Pos | < 1000 nM
3 | COc1ccc(-n2nc3c4cc(N5CCN(C)CC5)ccc4[nH]cc-3c2=O)cc1 [7f, 2-(4′-Methoxyphenyl)-8-(4-methylpiperazin-1-yl)-2,5-dihydro-pyrazolo[4,3-c]quinolin-3-one] | Pos | < 1000 nM
4 | O=c1c2c[nH]c3cc(N4CCNCC4)ccc3c-2nn1-c1ccccc1 [14a, 2-Phenyl-7-piperazin-1-yl-2,5-dihydro-pyrazolo[4,3-c]quinolin-3-one] | Neg | > 1000 nM
5 | CN1CCN(c2ccc3c4nn(-c5ccccc5)c(=O)c-4c[nH]c3c2)CC1 [14b, 7-(4-Methylpiperazin-1-yl)-2-phenyl-2,5-dihydro-pyrazolo[4,3-c]quinolin-3-one] | Neg | < 1000 nM
6 | O=c1c2c[nH]c3cc(N4CCNCC4)ccc3c-2nn1-c1ccc(Cl)cc1 [14c, 2-(4′-Chlorophenyl)-7-piperazin-1-yl-2,5-dihydro-pyrazolo[4,3-c]quinolin-3-one] | Neg | < 1000 nM
7 | CN1CCN(c2ccc3c4nn(-c5ccc(Cl)cc5)c(=O)c-4c[nH]c3c2)CC1 [14d, 2-(4-Chlorophenyl)-7-(4-methylpiperazin-1-yl)-2,5-dihydro-pyrazolo[4,3-c]quinolin-3-one] | Neg | < 1000 nM
8 | COc1ccc(-n2nc3c4ccc(N5CCNCC5)cc4[nH]cc-3c2=O)cc1 [14e, 2-(4-Methoxyphenyl)-7-piperazin-1-yl-2,5-dihydro-pyrazolo[4,3-c]quinolin-3-one] | Neg | < 1000 nM
9 | COc1ccc(-n2nc3c4ccc(N5CCN(C)CC5)cc4[nH]cc-3c2=O)cc1 [14f, 2-(4-Methoxyphenyl)-7-(4-methylpiperazin-1-yl)-2,5-dihydro-pyrazolo[4,3-c]quinolin-3-one] | Neg | > 1000 nM
10 | O=c1c2c[nH]c3cc(F)c(N4CCOCC4)cc3c-2nn1-c1ccccc1 [19a, 7-Fluoro-8-morpholin-4-yl-2-phenyl-2,5-dihydro-pyrazolo[4,3-c]quinolin-3-one] | Pos | < 1 nM
11 | CC(C)N1CCN(c2ccc3[nH]cc4c(=O)n(-c5ccccc5)nc-4c3c2)CC1 [19b, 8-(4-Isopropylpiperazin-1-yl)-2-phenyl-2,5-dihydro-pyrazolo[4,3-c]quinolin-3-one] | Pos | < 1000 nM
12 | O=c1c2c[nH]c3ccc(N4CCOCC4)cc3c-2nn1-c1ccccn1 [19c, 8-Morpholin-4-yl-2-pyridin-2-yl-2,5-dihydro-pyrazolo[4,3-c]quinolin-3-one] | Neg | < 1000 nM
13 | O=c1c2c[nH]c3ccc(N4CCOCC4)cc3c-2nn1-c1ccccc1 [19d, 8-Morpholin-4-yl-2-phenyl-2,5-dihydro-pyrazolo[4,3-c]quinolin-3-one] | Neg | < 1000 nM
14 | O=c1c2c[nH]c3ccc(N4CCOCC4)cc3c-2nn1-c1ccccc1F [19e, 2-(2-Fluorophenyl)-8-morpholin-4-yl-2,5-dihydro-pyrazolo[4,3-c]quinolin-3-one] | Neg | < 1000 nM
15 | COCCN1CCN(c2ccc3[nH]cc4c(=O)n(-c5ccccc5)nc-4c3c2)CC1 [19f, 8-[4-(2-Methoxyethyl)-piperazin-1-yl]-2-phenyl-2,5-dihydro-pyrazolo[4,3-c]quinolin-3-one] | Pos | < 1000 nM
16 | O=c1c2c[nH]c3ccc(N4CCCCC4)cc3c-2nn1-c1ccccc1 [19g, 2-Phenyl-8-piperidin-1-yl-2,5-dihydro-pyrazolo[4,3-c]quinolin-3-one] | Pos | < 1000 nM
17 | COc1ccc(-n2nc3c4cc(N5CCN(C(C)C)CC5)ccc4[nH]cc-3c2=O)cc1 [19i, 8-(4-Isopropylpiperazin-1-yl)-2-(4-methoxyphenyl)-2,5-dihydro-pyrazolo[4,3-c]quinolin-3-one] | Pos | < 1000 nM
18 | O=c1c2c[nH]c3cc(Cl)c(N4CCNCC4)cc3c-2nn1-c1ccccc1 [19j, 7-Chloro-2-phenyl-8-piperazin-1-yl-2,5-dihydro-pyrazolo[4,3-c]quinolin-3-one] | Neg | < 1000 nM
19 | O=c1c2c[nH]c3cc(Cl)c(N4CCOCC4)cc3c-2nn1-c1ccccc1 [19k, 7-Chloro-8-morpholin-4-yl-2-phenyl-2,5-dihydro-pyrazolo[4,3-c]quinolin-3-one] | Pos | < 1000 nM
20 | O=c1c2c[nH]c3cc(N4CCOCC4)c(F)cc3c-2nn1-c1ccccc1 [28b, 8-Fluoro-7-morpholin-4-yl-2-phenyl-2,5-dihydro-pyrazolo[4,3-c]quinolin-3-one] | Pos | < 1000 nM
21 | CC(C)N1CCN(c2cc3[nH]cc4c(=O)n(-c5ccccc5)nc-4c3cc2F)CC1 [28c, 8-Fluoro-7-(4-isopropylpiperazin-1-yl)-2-phenyl-2,5-dihydro-pyrazolo [4,3-c]quinolin-3-one] | Pos | < 1000 nM
22 | O=c1c2c[nH]c3cc(N4CCOCC4)c(F)cc3c-2nn1-c1ccccn1 [28d, 8-Fluoro-7-(morpholin-4-yl)-2-pyridin-2-yl-2,5-dihydro-pyrazolo[4,3-c]quinolin-3-one] | Neg | < 1000 nM
23 | CC1CC(C)CN(c2cc3[nH]cc4c(=O)n(-c5ccccc5)nc-4c3cc2F)C1 (centres unmarked) [28e, 7-(3,5-Dimethylpiperidin-1-yl)-8-fluoro-2-phenyl-2,5-dihydro-pyrazolo[4,3-c]quinolin-3-one] | Pos | < 1000 nM
24 | CN1CCN(c2cc3[nH]cc4c(=O)n(-c5ccccn5)nc-4c3cc2F)CC1 [28f, 8-Fluoro-7-(4-methylpiperazin-1-yl)-2-pyridin-2-yl-2,5-dihydro-pyrazolo[4,3-c]quinolin-3-one] | Pos | < 1000 nM
25 | CC1CN(c2cc3[nH]cc4c(=O)n(-c5ccccc5)nc-4c3cc2F)CC(C)O1 (centres unmarked) [28g, 7-(2,6-Dimethylmorpholin-4-yl)-8-fluoro-2-phenyl-2,5-dihydro-pyrazolo[4,3-c]quinolin-3-one] | Pos | < 1000 nM
26 | O=c1c2c[nH]c3cc(N4CCOCC4)ccc3c-2nn1-c1ccccc1 [28h, 7-Morpholin-4-yl-2-phenyl-2,5-dihydro-pyrazolo[4,3-c]quinolin-3-one] | Pos | < 1000 nM
27 | O=c1c2c[nH]c3cc(N4CCNCC4)c(F)cc3c-2nn1-c1ccsc1 [28p, 8-fluoro-7-(piperazin-1-yl)-2-(thiophen-3-yl)-2,5-dihydro-pyrazolo[4,3-c]quinolin-3-one] | Neg | < 1000 nM
28 | O=c1c2c[nH]c3c(F)c(N4CCNCC4)c(F)cc3c-2nn1-c1ccccc1 [44a, 6,8-Difluoro-2-phenyl-7-piperazin-1-yl-2,5-dihydro-pyrazolo[4,3-c]quinolin-3-one] | Neg | < 1000 nM
